Tests used:
Format in all cases: in vitro ADME
CYP2B6 = biological target: T1, CYP2B6 (Homo sapiens, UniProt P20813); experiment: CYP450 inhibition assay in human liver microsomes, CYP2B6; conditions: HLM 0.1 mg/mL; probe bupropion 80 µM; 10 min
T1 construct: tissue Corning 452117; host or cells: human liver microsomes
T1 sequence (P20813 1-491): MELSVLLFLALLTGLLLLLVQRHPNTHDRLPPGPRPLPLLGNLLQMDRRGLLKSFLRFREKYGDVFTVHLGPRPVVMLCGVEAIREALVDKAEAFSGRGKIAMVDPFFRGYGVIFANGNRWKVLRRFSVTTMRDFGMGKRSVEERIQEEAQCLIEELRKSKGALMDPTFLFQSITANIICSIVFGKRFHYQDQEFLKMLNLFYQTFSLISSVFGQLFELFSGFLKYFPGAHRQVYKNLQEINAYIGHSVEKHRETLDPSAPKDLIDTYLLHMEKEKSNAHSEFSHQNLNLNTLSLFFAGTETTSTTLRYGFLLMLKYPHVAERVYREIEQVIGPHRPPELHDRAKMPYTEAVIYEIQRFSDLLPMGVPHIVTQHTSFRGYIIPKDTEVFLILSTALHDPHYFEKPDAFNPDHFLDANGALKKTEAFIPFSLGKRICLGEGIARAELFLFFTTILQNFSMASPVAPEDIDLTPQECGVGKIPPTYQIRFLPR
Description: (§1) To evaluate the reliability and reproducibility of the CYP450 inhibition assay, we measured the inhibitory effects of selected positive control inhibitors of each CYP450 enzyme in human liver microsomes (HLM, Table 1, Figure 2). The potency of inhibition was estimated by observing the alteration in concentration of metabolites of CYP450 substrates (Table 1).
(§2) Reagents preparation. […] The stock solution of PDQ (10 mM) was prepared with methanol and further diluted to the range of 3 µM to 3 mM with methanol to ensure that the solvent of different PDQ samples contained the same amount (1%) of methanol.
(§3) The stock solutions of the positive control inhibitors and the probe substrates of CYP450 enzymes were prepared in methanol.
(§4) CYP450 inhibition assay. […] The assay was conducted in polypropylene 96-well plates (2.2 mL/well, Apricot Designs Inc., Covina, CA, USA).
(§5) The total volume of the reaction is 200 μL. […] The substrates and analytes were analyzed by LC-MS/MS (API4000, Applied Biosystems, Singapore; HPLC, Shimadzu, Japan). […]
(§6) Data analysis. […] The IC50 was determined by fitting the dependence of the relative remaining activity (y = Vi/V0) to the following three-parameter equation (Equation (1)). […]

CYP2D6 = biological target: T2, CYP2D6 (Homo sapiens, UniProt P10635); experiment: CYP450 inhibition assay in human liver microsomes, CYP2D6; conditions: HLM 0.1 mg/mL; probe dextromethorphan 10 µM; 20 min
T2 construct: tissue Corning 452117; host or cells: human liver microsomes
Description: as §1, §2, §3, §4, §5, §6

hMDR1(P-gp) = biological target: T3, hMDR1(P-gp) (Homo sapiens, UniProt P08183); experiment: MDCK II-MDR1 drug transport assay (3H-digoxin); conditions: for Transport activity of P-gp (main text: percentage inhibition): negative control = 100%
T3 construct: host or cells: MDCKII-MDR1
From the text: Drug transporters mediate the cellular uptake and efflux of their substrates. Therefore, cell lines overexpressing a drug transporter can be utilized to investigate inhibitors of the transporter by assessing changes in substrate uptake. For each drug transporter, we selected a well-characterized inhibitor as the positive control. Radiolabeled substrates were used to indicate the decrease in transport efficiency when the drug transporters were inhibited by PDQ or the control inhibitors.
The concentrations of the control drugs and the substrates were stated in the assay details. Working solutions of the control inhibitors, the radiolabeled substrates, and each dose of PDQ were prepared at 200 times (200×) more concentrated solutions with DMSO for further dilution.
Transporter-overexpressed cell lines. Human organic anion transporter-overexpressed cell lines MDCKII-OAT1 and S2-OAT3, human organic anion transport polypeptide-overexpressed cell lines HEK293A-OATP1B1 and HEK293A-OATP1B3, human organic cation transporter 2-overexpressed cell line S2-OCT2, and human multi-drug resistance protein MDR1 (or P-gp)-overexpressed cell line MDCKII-MDR1 were gifts from Japan Fuji Biomedical Co., Ltd. (Fuji, Shizuoka Prefecture, Japan). Breast cancer resistance protein-overexpressed vesicles (sf9-BCRP vesicle) were purchased from GenoMembrane Co., Ltd. (Yokohama, Kanagawa, Japan).
All reagents were pre-warmed to 37 °C. […] The plate was incubated for 20 min. […] Each sample was replicated three times (N = 3).
In = [100 × (U − U0)/(Uc − U0)]%(3)
The results were expressed as mean ± standard deviation (SD) and analyzed with GraphPad Prism 8.0 software (CA, USA). The IC50 of PDQ was curve-fitted with the FORECAST function.

T3 sequence (P08183 whole entry): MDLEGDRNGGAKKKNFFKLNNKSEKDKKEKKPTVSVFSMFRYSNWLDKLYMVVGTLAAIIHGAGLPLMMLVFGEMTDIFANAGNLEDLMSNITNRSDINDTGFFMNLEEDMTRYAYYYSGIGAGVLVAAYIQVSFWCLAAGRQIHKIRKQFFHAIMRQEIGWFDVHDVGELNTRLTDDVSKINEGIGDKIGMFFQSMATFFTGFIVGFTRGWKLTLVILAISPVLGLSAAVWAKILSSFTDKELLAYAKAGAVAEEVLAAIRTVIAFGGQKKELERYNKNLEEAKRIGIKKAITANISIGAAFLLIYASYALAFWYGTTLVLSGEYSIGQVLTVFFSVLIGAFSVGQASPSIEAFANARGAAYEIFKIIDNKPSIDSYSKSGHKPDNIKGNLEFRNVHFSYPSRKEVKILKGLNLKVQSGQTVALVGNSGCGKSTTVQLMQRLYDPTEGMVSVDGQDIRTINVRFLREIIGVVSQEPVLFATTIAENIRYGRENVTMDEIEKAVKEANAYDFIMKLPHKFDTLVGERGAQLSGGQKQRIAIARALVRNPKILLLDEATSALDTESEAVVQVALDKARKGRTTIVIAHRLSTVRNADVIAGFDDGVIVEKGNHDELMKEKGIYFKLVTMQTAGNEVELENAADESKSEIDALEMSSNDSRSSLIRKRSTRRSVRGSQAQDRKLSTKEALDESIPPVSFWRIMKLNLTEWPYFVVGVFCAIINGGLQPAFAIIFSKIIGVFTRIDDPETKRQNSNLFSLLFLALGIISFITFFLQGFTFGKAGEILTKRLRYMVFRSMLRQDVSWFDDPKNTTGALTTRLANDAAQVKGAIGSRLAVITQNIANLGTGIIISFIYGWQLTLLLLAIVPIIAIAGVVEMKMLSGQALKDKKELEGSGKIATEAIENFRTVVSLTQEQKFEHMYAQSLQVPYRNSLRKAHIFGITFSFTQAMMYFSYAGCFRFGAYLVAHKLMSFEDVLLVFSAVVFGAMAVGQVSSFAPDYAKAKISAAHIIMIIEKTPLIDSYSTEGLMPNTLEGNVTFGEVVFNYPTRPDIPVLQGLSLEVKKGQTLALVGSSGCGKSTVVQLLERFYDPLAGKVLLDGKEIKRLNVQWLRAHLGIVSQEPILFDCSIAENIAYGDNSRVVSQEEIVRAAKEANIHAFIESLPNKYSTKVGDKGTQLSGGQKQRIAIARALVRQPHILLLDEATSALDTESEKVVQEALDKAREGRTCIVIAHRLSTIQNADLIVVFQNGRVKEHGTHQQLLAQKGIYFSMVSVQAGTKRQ
T2 sequence (P10635 whole entry): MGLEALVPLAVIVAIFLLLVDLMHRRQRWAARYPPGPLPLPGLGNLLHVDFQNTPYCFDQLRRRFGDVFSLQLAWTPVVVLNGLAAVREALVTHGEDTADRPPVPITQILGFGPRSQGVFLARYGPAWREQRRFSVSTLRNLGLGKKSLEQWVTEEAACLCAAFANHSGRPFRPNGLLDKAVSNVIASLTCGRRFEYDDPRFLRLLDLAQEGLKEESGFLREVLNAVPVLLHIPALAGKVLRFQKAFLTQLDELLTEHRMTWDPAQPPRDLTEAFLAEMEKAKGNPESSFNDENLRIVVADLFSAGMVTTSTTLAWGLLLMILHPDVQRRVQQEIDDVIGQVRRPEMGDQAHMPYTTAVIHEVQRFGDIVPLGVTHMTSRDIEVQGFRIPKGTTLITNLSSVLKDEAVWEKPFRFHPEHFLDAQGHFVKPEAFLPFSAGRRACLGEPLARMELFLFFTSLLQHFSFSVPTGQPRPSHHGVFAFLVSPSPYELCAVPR

SMILES: CC(C)(O)[C@@H]1CC[C@@](C)([C@H]2CC[C@]3(C)[C@@H]2[C@H](O)C[C@@H]2[C@@]4(C)CC[C@H](O)C(C)(C)[C@@H]4CC[C@]23C)O1 [PDQ, (20S,24S)-dammar-20,24-epoxy-3β, 12β, 25-triol]
- IC50 (CYP2B6): 45.3 µM
- IC50 (CYP2D6): 52 µM
- IC50 (hMDR1(P-gp); MDCKII-MDR1, 25 μM 3H-digoxin, 15 min): 0.41 µM
- Transport activity of P-gp (main text: percentage inhibition) (hMDR1(P-gp); inhibitor 0.1 μM): 57.5±7.1%
- Transport activity of P-gp (main text: percentage inhibition) (hMDR1(P-gp); inhibitor 0.3 μM): 57.0±9.2%
- Transport activity of P-gp (main text: percentage inhibition) (hMDR1(P-gp); inhibitor 1 μM): 30.8±6.4%
- Transport activity of P-gp (main text: percentage inhibition) (hMDR1(P-gp); inhibitor 3 μM): 23.2±7.1%
